Assay results reported in patent US6211372A, “Pharmaceutical compositions and methods for use” (priority 1999, dated 2001).

Test system: dopamine release
Assay: Dopamine release (receptor activation/inhibition)
Assay type: biochemical
Conditions: for Emax (dopamine release): amount released relative to (S)-(-)-nicotine or tetramethylammonium ion (TMA); for EC50: activation of dopamine release
Procedure: Dopamine release was measured using the techniques described in U.S. Pat. No. 5,597,919 to Dull et al. Release is expressed as a percentage of release obtained with a concentration of (S)-(-)-nicotine resulting in maximal effects. Reported EC50 values are expressed in nM, and Emax values represent the amount released relative to (S)-(-)-nicotine or tetramethylammonium ion (TMA), on a percentage basis.
Reported IC50 values are expressed in nM and represent the concentration resulting in 50% inhibition of agonist induced receptor activation. Emax values represent the amount released relative to (S)-(-)-nicotine on a percentage basis.

Structure (SMILES) | Emax (dopamine release) | EC50
c1cncc(C2C3CC4CC(C3)CN2C4)c1 (stereo not drawn) [Sample No. 1, 1-aza-2-(3-pyridyl)-tricyclo[3.3.1.1^3,7]decane] | 0% | –
Brc1cncc(C2C3CC4CC(C3)CN2C4)c1 (stereo not drawn) [Sample No. 2, 1-aza-2-[5-bromo(3-pyridyl)]tricyclo[3.3.1.1^3,7]decane] | 0% | > 100 µM
Cl.Cl.Cl.Nc1cncc(C2C3CC4CC(C3)CN2C4)c1 (stereo not drawn) [Sample No. 3, 1-aza-2-[5-amino-(3-pyridyl)]tricyclo[3.3.1.1^3,7]decane trihydrochloride] | 0% | > 100 µM
CCOc1cncc(C2C3CC4CC(C3)CN2C4)c1 (stereo not drawn) [Sample No. 4, 1-aza-2-[5-ethoxy-(3-pyridyl)]-tricyclo-[3.3.1.1^3,7]decane] | 0% | > 100 µM
CC(C)Oc1cncc(C2C3CC4CC(C3)CN2C4)c1 (stereo not drawn) [Sample No. 5, 1-aza-2-[5-isopropoxy-(3-pyridyl)]tricyclo[3.3.1.1^3,7]decane] | 0% | > 100 µM
